Experiments:
Enterococcus faecium [1] = assay: Evaluated for the bacterial growth inhibition and the concentration required for 50% inhibition against Streptococcus faecium (MTX resistant); assay type: functional, organism-based
Enterococcus faecium [2] = assay: Evaluated for the bacterial growth inhibition and the concentration required for 50% inhibition against Streptococcus faecium ATCC 8043 strain; assay type: functional, organism-based

Nc1nc(O)c2c(n1)NCC(CCNC1CCC(C(=O)O)CC1)=N2 (configuration not stated)
Concentration (Enterococcus faecium [1]): > 2000 ng/mL
Concentration (Enterococcus faecium [2]): 130 ng/mL

Nc1nc(O)c2c(n1)NCC(CCN[C@H]1CC[C@@H](C(=O)NC(CCC(=O)O)C(=O)O)CC1)N2 (some centres not stated)
Concentration (Enterococcus faecium [1]): > 2000 ng/mL
Concentration (Enterococcus faecium [2]): 38 ng/mL

Nc1nc(O)c2nc(CCNC3CCC(C(=O)O)CC3)cnc2n1 (configuration not stated)
Concentration (Enterococcus faecium [1]): > 2000 ng/mL
Concentration (Enterococcus faecium [2]): > 2000 ng/mL

Nc1nc(O)c2nc(CCN[C@H]3CC[C@@H](C(=O)NC(CCC(=O)O)C(=O)O)CC3)cnc2n1 (some centres not stated)
Concentration (Enterococcus faecium [1]): > 2000 ng/mL
Concentration (Enterococcus faecium [2]): 2000 ng/mL

Nc1nc(O)c2c(n1)NCC(CCN[C@H]1CC[C@@H](C(=O)NC(CCC(=O)O)C(=O)O)CC1)=N2 (some centres not stated)
Concentration (Enterococcus faecium [1]): > 2000 ng/mL
Concentration (Enterococcus faecium [2]): 30 ng/mL

Nc1nc(O)c2c(n1)NCC(CCNC1CCC(C(=O)O)CC1)N2 (configuration not stated)
Concentration (Enterococcus faecium [1]): > 2000 ng/mL
Concentration (Enterococcus faecium [2]): 260 ng/mL

Source: ChEMBL document CHEMBL1122428, “Folate analogues. 20. Synthesis and antifolate activity of 1',2',3',4',5',6'-hexahydrohomofolic acid” (J Med Chem, 1983)
